# Measured values: patent US12234245B2, “Sulfonimidamide compounds as inhibitors of interleukin-1 activity” (Genentech, Inc., priority 2018, dated 2025)
# Target: NLRP3 inflammasome (Homo sapiens, UniProt Q96P20)
# Assay: THP-1 ASC-GFP speck assay
# Format: cell-based
# Parameters: host or cells: THP-1 ASC-GFP cells, PMA-differentiated, LPS-primed, nigericin-stimulated
# Conditions: THP-1 ASC-GFP cells, PMA differentiated, LPS primed, 10 μM nigericin; read-out: THP1 ASC Speck IC50
# Description: THP-1 ASC-GFP cell line was purchased from Invivogen, San Diego, for inflammasome activation assay. THP-1 ASC-GFP cells stably express a 37.6 kDa ASC::GFP fusion protein that enables monitoring of spec formation by microscopy after activation of NLRP3 dependent inflammasome pathway. Cells were maintained at a density of 600,000 cells/mL in growth media consisting of RPMI 1640, 2 mM L-glutamine, 25 mM HEPES and 10% heat inactivated fetal bovine serum at 37° C. and 5% CO2. Cells were passaged every 3-4 days and used for assays for up to 20 passages.
# THP-1 ASC-GFP cells were collected by centrifuging cells at 800 RPM for 5 minutes. Cell culture supernatant was removed and cells were re-suspended in fresh media at density of 1×10^6 cells/mL in assay media consisting of RPMI 1640, 2 mM L-glutamine, 25 mM HEPES and 10% heat inactivated fetal bovine serum. Phorbol 12-myristate 13-acetate (PMA) (Invivogen, tlrl-pma) was added to the cell suspension at a final concentration of 500 ng/ml and mixed thoroughly. 40,000 cells were added per well of a 384 well plate and differentiated into macrophages overnight at 37° C. and 5% CO2. Cells were primed with 1 μg/mL of lipopolysaccharide (Invivogen Ultrapure lipopolysaccharide from E. coli, tlrl-3pelps) in assay media for 3 hours at 37° C. and 5% CO2. After priming, media was removed and THP-1 ASC-GFP cells were preincubated with serially diluted test compounds with starting concentration of 40 μM followed by 2-fold dilution for a 20-point curve or vehicle (DMSO) for 30 min in assay media at 37° C. and 5% CO2. Cells were then stimulated with 10 μM nigericin (Invivogen, tlrl-nig-5) for 90 min at 37° C. and 5% CO2 to activate NLRP3 dependent inflammasome pathway and spec formation. After stimulation, cells were fixed with 4.8% paraformaldehyde (Electron Microscopy Sciences #15710-S) and incubated at room temperature for 15 min. Cells were then washed 3-times with 100 μL of phosphate buffered saline and permeabilized in the presence of premeablization/block buffer for 20 min at room temperature. Cells were then washed 3-times with 100 μL phosphate buffered saline and incubated for 1 hr at room temperature in the presence of hoechst. After staining with Hoechst, cells were washed 3-times with 100 μL phosphate buffered saline and imaged for ASC spec formation.
# THP-1 ASC-GFP cells were imaged in 488 and Hoechst channels. Hoechst channel was used for cell count and 488 channel was used to identify number of GFP ASC specks in imaged fields. Percentage of cells with a spec was calculated by dividing the number of GFP positive spots by total number of cells.
# Sequence of NLRP3 inflammasome (Q96P20 whole entry): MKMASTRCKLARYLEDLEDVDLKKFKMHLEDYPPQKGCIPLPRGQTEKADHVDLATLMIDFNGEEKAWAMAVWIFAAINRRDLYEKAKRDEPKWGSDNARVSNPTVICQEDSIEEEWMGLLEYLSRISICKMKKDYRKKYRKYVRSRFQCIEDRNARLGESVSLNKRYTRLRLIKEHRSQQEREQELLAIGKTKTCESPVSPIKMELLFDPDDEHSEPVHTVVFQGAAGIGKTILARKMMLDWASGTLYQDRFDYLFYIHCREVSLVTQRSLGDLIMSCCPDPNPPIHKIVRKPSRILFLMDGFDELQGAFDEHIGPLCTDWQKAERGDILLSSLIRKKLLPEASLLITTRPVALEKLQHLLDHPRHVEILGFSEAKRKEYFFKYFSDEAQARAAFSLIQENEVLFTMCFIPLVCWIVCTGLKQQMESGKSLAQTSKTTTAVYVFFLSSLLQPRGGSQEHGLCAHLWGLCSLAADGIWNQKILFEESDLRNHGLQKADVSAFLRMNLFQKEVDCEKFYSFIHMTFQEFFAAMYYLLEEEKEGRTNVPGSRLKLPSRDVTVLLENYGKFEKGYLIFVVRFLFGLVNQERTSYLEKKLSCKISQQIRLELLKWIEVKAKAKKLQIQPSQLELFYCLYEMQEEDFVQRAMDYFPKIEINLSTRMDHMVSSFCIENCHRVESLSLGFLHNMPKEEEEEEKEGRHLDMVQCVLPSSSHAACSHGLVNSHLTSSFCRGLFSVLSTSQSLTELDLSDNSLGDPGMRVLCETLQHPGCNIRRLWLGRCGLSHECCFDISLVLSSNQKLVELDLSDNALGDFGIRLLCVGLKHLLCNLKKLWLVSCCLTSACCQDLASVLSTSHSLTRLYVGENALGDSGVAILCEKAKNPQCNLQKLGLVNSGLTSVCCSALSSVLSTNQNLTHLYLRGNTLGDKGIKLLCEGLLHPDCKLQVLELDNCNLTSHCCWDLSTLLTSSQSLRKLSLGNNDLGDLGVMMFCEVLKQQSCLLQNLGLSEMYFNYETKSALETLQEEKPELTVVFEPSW
row,SMILES,IC50 [µM]
1,"COC1COc2c(S(=O)(=NC(=O)Nc3c4c(cc5c3CCC5)CCC4)NC(C)=O)cnn2C1 (single isomer, unassigned) [Example 116]",2.1
2,"COc1cc(-c2cc(F)cc(C(C)C)c2NC(=O)N=S(N)(=O)c2cnn3c2OCCC3)ccn1 (single isomer, unassigned) [Example 119]",0.058
3,"COc1cc(-c2cc(F)cc(C(C)C)c2NC(=O)N=S(N)(=O)c2cnn3c2OCCC3)ccn1 (single isomer, unassigned) [Example 120]",1.2
4,"CO[C@@H]1CCOc2c([S@](=O)(=NC(=O)Nc3c4c(cc5c3CCC5)CCC4)NC#N)cnn2C1 (single isomer, unassigned) [Example 121]",2.7
5,"CO[C@@H]1CCOc2c([S@@](=O)(=NC(=O)Nc3c4c(cc5c3CCC5)CCC4)NC#N)cnn2C1 (single isomer, unassigned) [Example 122]",0.8
6,"CO[C@H]1CCOc2c([S@](=O)(=NC(=O)Nc3c4c(cc5c3CCC5)CCC4)NC#N)cnn2C1 (single isomer, unassigned) [Example 123]",0.12
7,"CC1CCc2cc3c(c(NC(=O)N=S(N)(=O)c4cnn5c4OCCC5)c21)CCC3 (single isomer, unassigned) [Example 126]",> 20
8,"CC1CCc2cc3c(c(NC(=O)N=S(N)(=O)c4cnn5c4OCCC5)c21)CCC3 (single isomer, unassigned) [Example 127]",3.3
9,"CC1CCc2cc3c(c(NC(=O)N=S(N)(=O)c4cnn5c4OCCC5)c21)CCC3 (single isomer, unassigned) [Example 128]",1.7
10,"CC1CCc2cc3c(c(NC(=O)N=S(N)(=O)c4cnn5c4OCCC5)c21)CCC3 (single isomer, unassigned) [Example 129]",0.019
11,"CNC1CCn2ncc(S(N)(=O)=NC(=O)Nc3c4c(cc5c3CCC5)CCC4)c2OC1 (single isomer, unassigned) [Example 130]",14
12,"CNC1CCn2ncc(S(N)(=O)=NC(=O)Nc3c4c(cc5c3CCC5)CCC4)c2OC1 (single isomer, unassigned) [Example 131]",0.92
13,"CNC1CCn2ncc(S(N)(=O)=NC(=O)Nc3c4c(cc5c3CCC5)CCC4)c2OC1 (single isomer, unassigned) [Example 132]",1.2
14,"CC1CCc2cc3c(c(NC(=O)N=S(N)(=O)c4cnn5c4OCC(C)(C)C5)c21)CCC3 (single isomer, unassigned) [Example 135]",> 20
15,"CC1CCc2cc3c(c(NC(=O)N=S(N)(=O)c4cnn5c4OCC(C)(C)C5)c21)CCC3 (single isomer, unassigned) [Example 136]",3.8
16,"CC1CCc2cc3c(c(NC(=O)N=S(N)(=O)c4cnn5c4OCC(C)(C)C5)c21)CCC3 (single isomer, unassigned) [Example 137]",0.028
17,"CC1CCc2cc3c(c(NC(=O)N=S(N)(=O)c4cnn5c4OCC(C)(C)C5)c21)CCC3 (single isomer, unassigned) [Example 138]",0.79

# More lines, now with the values ahead:
row,IC50 [µM],SMILES
1,4.3,"NS(=O)(=NC(=O)Nc1c2c(cc3c1CCC3)CCC2)c1cnn2c1CCOCC2 (single isomer, unassigned) [Example 117]"
2,> 20,"NS(=O)(=NC(=O)Nc1c2c(cc3c1CCC3)CCC2)c1cnn2c1CCOCC2 (single isomer, unassigned) [Example 118]"
3,0.054,"NS(=O)(=NC(=O)Nc1c2c(cc3c1CCC3)CCC2)c1cnn2c1OCC2 (single isomer, unassigned) [Example 124]"
4,1.7,"NS(=O)(=NC(=O)Nc1c2c(cc3c1CCC3)CCC2)c1cnn2c1OCC2 (single isomer, unassigned) [Example 125]"
5,2.8,"NS(=O)(=NC(=O)Nc1c2c(cc3c1CCC3)CCC2)c1cnn2c1C(F)(F)CCC2 (single isomer, unassigned) [Example 133]"
6,> 20,"NS(=O)(=NC(=O)Nc1c2c(cc3c1CCC3)CCC2)c1cnn2c1C(F)(F)CCC2 (single isomer, unassigned) [Example 134]"
7,0.0043,"CC1(C)Cn2ncc(S(N)(=O)=NC(=O)Nc3c4c(cc5c3CCC5)CCC4)c2O1 (single isomer, unassigned) [Example 139]"
